Results: US11014941B2, “Pyrrolopyrimidine derivatives useful as inhibitors of influenza virus replication” (priority 2017, dated 2021)

Molecular target: Influenza PB2 (Influenza A virus, UniProt P03428)
Assay: biochemical
Assay type: binding
Settings: read-out: Influenza PB2 affinity, IC50

Influenza PB2, sequence (P03428 whole entry, looked up): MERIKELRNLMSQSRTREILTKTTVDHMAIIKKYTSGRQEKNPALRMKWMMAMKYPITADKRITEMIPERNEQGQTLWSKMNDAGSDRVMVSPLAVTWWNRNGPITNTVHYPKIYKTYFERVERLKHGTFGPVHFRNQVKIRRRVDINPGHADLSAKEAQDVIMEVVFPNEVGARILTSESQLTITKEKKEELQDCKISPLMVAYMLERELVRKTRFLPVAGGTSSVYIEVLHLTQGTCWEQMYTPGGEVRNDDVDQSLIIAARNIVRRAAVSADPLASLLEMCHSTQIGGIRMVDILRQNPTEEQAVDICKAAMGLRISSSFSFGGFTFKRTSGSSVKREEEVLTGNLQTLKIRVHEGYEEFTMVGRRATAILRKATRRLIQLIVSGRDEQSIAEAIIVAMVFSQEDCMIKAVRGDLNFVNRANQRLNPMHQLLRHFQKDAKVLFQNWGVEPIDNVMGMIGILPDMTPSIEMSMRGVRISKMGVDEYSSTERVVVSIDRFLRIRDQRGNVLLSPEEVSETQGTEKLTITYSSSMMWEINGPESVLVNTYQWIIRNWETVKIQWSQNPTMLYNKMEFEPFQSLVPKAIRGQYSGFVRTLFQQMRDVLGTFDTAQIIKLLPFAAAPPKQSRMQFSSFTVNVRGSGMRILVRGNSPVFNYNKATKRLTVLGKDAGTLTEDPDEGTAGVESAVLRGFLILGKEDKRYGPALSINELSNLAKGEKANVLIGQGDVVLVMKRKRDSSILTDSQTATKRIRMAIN

Row | Compound | IC50 [µM]
1 | O=C(O)[C@@H]1C2CCC(CC2)C1n1cc(-c2ccncc2)c2cnc(-c3c[nH]c4ncc(Cl)cc34)nc21 (single isomer, unassigned) [Compound B189] | 1 to 10
2 | COC(=O)[C@H](Cc1ccccc1)NC(=O)Cn1ccc2cnc(-c3c[nH]c4ncc(F)cc34)nc21 [Compound B8] | > 100
3 | CN(C)C(=O)CN1CCc2cnc(-c3c[nH]c4ncc(F)cc34)nc21 [Compound B6] | 10 to 100
4 | C[C@@]1(C(=O)O)CCCC[C@H]1n1cc(C(F)(F)F)c2cnc(-c3c[nH]c4ncc(F)cc34)nc21 [Compound B74] | < 1
5 | O=C(O)[C@@H]1C2CCC(CC2)C1n1cc(-c2ccncc2)c2cnc(-c3c[nH]c4ncc(Cl)cc34)nc21 (single isomer, unassigned) [Compound B190] | 1 to 10
6 | O=C(O)[C@@H]1CCCC[C@H]1n1cc(F)c2cnc(-c3c[nH]c4ncc(Cl)cc34)nc21 [Compound B87] | < 1
7 | CNC(=O)[C@@H]1C2CCC(CC2)C1n1cc(F)c2cnc(-c3c[nH]c4ncc(Cl)cc34)nc21 (single isomer, unassigned) [Compound B195] | 10 to 100
8 | CNC(=O)NC1CCCC(n2ccc3cnc(-c4c[nH]c5ncc(F)cc45)nc32)C1 (centres unmarked) [Compound B57] | 10 to 100
9 | O=C(O)[C@H]1CCCN1C(=O)Cn1ccc2c(-c3c[nH]c4ncc(F)cc34)ncnc21 [Compound A9] | 10 to 100
10 | CCCCCOCCCCCNC(=O)N1CCC[C@H](n2ccc3cnc(-c4c[nH]c5ncc(F)cc45)nc32)C1 [Compound B34] | > 100
11 | O=C(Cn1ccc2cnc(-c3c[nH]c4ncc(F)cc34)nc21)N[C@@H](Cc1ccccc1)C(=O)O [Compound B14] | 10 to 100
12 | CNC(=O)CNC(=O)[C@H]1C2CCC(CC2)[C@@H]1n1cc(Cl)c2cnc(-c3c[nH]c4ncc(F)cc34)nc21 [Compound B146] | 1 to 10
13 | CCOC(=O)[C@@H]1C2CCC(CC2)[C@H]1n1cc(Cl)c2cnc(-c3c[nH]c4ncc(C#N)cc34)nc21 [Compound B219] | > 100
14 | CCOCCOCCOCCN(C)C(=O)[C@@H]1CCCC[C@H]1n1ccc2cnc(-c3c[nH]c4ncc(F)cc34)nc21 [Compound B26] | 10 to 100
15 | COC(=O)/C=C/n1ccc2cnc(-c3c[nH]c4ncc(F)cc34)nc21 [Compound B23] | 10 to 100
16 | COC(=O)NCCn1cc(-c2c[nH]c3ncc(F)cc23)c2cncnc21 [Compound C15] | > 100
17 | CCOC(=O)[C@@H]1C2CCC(CC2)[C@H]1n1ccc2ccc(-c3c[nH]c4ncc(F)cc34)nc21 [Compound B199] | 10 to 100
18 | O=C(O)[C@H]1C2CCC(CC2)[C@@H]1n1cc(Cl)c2cnc(-c3c[nH]c4ncccc34)nc21 [Compound B140] | < 1
19 | CN(C)C(=O)N[C@H]1C2CCC(CC2)[C@@H]1n1cc(Cl)c2cnc(-c3c[nH]c4ncc(F)cc34)nc21 [Compound B171] | 1 to 10
20 | C=Cc1cnc2[nH]cc(-c3ncc4c(F)cn([C@@H]5C6CCC(CC6)[C@H]5C(=O)O)c4n3)c2c1 [Compound B210] | 1 to 10
21 | CC(Cn1cc(-c2c[nH]c3ncc(F)cc23)c2cncnc21)C(=O)N(C)C (centres unmarked) [Compound C6] | 10 to 100
22 | CN(C)C(=O)Cn1cc(-c2c[nH]c3ncc(F)cc23)c2cncnc21 [Compound C1] | 10 to 100

Row | Compound | IC50 [µM]
23 | O=C(O)C1=C(n2cc(F)c3cnc(-c4c[nH]c5ncc(Cl)cc45)nc32)C2CCC1CC2 [Compound B213] | < 1
24 | N#CCCCCc1cn([C@@H]2C3CCC(CC3)[C@H]2C(=O)O)c2nc(-c3c[nH]c4ncc(F)cc34)ncc12 [Compound B193] | < 1
25 | O=C(O)[C@@H]1C2CCC(CC2)[C@H]1n1cc(-c2ccsc2)c2cnc(-c3c[nH]c4ncc(F)cc34)nc21 [Compound B162] | < 1
26 | O=C(O)CNC(=O)Cn1ccc2c(-c3c[nH]c4ncc(F)cc34)ncnc21 [Compound A6] | 10 to 100
27 | O=C(O)[C@H]1C2CCC(CC2)[C@@H]1n1cc(Cl)c2cnc(-c3c[nH]c4ncc(F)cc34)nc21 [Compound B127] | < 1
28 | CCOC(=O)[C@H]1C2CCC(CC2)[C@@H]1n1cc(Cl)c2cnc(-c3c[nH]c4ncc(F)cc34)nc21 [Compound B126] | > 100
29 | COC(=O)[C@]1(C)CCCC[C@H]1n1cc(Cl)c2cnc(-c3c[nH]c4ncc(F)cc34)nc21 [Compound B66] | 10 to 100
30 | CCOC(=O)C1=C(N2CCc3cnc(-c4c[nH]c5ncc(F)cc45)nc32)CCCC1 [Compound B51] | > 100
31 | N#Cc1cnc2[nH]cc(-c3ncc4c(F)cn([C@@H]5C6CCC(CC6)[C@H]5C(=O)O)c4n3)c2c1 [Compound B214] | 1 to 10
32 | O=C(O)Cn1ccc2cnc(-c3c[nH]c4ncc(F)cc34)nc21 [Compound B4] | 10 to 100
33 | COC(=O)[C@H](C)NC(=O)Cn1ccc2c(-c3c[nH]c4ncc(F)cc34)ncnc21 [Compound A10] | 10 to 100
34 | O=C(O)C1=C(N2CCc3cnc(-c4c[nH]c5ncc(F)cc45)nc32)CCCC1 [Compound B53] | 1 to 10
35 | CCCCCOCCOCCNC(=O)N1CCC[C@H](n2ccc3cnc(-c4c[nH]c5ncc(F)cc45)nc32)C1 [Compound B33] | 10 to 100
36 | CCOCCOCCCCCNC(=O)N[C@@H]1CCC[C@H](n2ccc3cnc(-c4c[nH]c5ncc(F)cc45)nc32)C1 [Compound B40] | > 100
37 | O=C(O)[C@@H]1C2CCC(CC2)[C@H]1n1cc(F)c2cnc(-c3c[nH]c4ncc(C(F)(F)F)cc34)nc21 [Compound B216] | 1 to 10
38 | CN(C)C(=O)N[C@H]1CCC[C@H](n2ccc3cnc(-c4c[nH]c5ncc(F)cc45)nc32)C1 [Compound B59] | 10 to 100
39 | CNC(=O)[C@@H]1C2CCC(CC2)C1n1cc(F)c2cnc(-c3c[nH]c4ncc(Cl)cc34)nc21 (single isomer, unassigned) [Compound B194] | 1 to 10
40 | CNC(=O)[C@]1(C)CCCC[C@H]1n1cc(Cl)c2cnc(-c3c[nH]c4ncc(F)cc34)nc21 [Compound B82] | 10 to 100
41 | O=C(N[C@H]1CCC[C@@H](n2cc(F)c3cnc(-c4c[nH]c5ncc(Cl)cc45)nc32)C1)N1CCc2ccccc21 [Compound B102] | > 100
42 | O=C(O)[C@H]1C2CCC(CC2)C1n1ccc2cnc(-c3c[nH]c4ncc(F)cc34)nc21 (some centres unmarked) [Compound B122] | 1 to 10
43 | COC(=O)[C@]1(C)CCCC[C@H]1n1cc(C(F)(F)F)c2cnc(-c3c[nH]c4ncc(F)cc34)nc21 [Compound B73] | 10 to 100
44 | CNC(=O)CCn1cc(-c2c[nH]c3ncc(F)cc23)c2cncnc21 [Compound C11] | > 100

Row | Compound | IC50 [µM]
45 | O=C(O)[C@@H]1C2CCC(CC2)[C@H]1n1cc(-c2cn[nH]c2)c2cnc(-c3c[nH]c4ncc(F)cc34)nc21 [Compound B179] | < 1
46 | CC(=O)NCCn1cc(-c2c[nH]c3ncc(F)cc23)c2cncnc21 [Compound C12] | > 100
47 | CCOCCOCCOCC(=O)N1CCC[C@H](n2ccc3cnc(-c4c[nH]c5ncc(F)cc45)nc32)C1 [Compound B32] | 10 to 100
48 | CCOCCCCCOCCNC(=O)N[C@@H]1CCC[C@H](n2ccc3cnc(-c4c[nH]c5ncc(F)cc45)nc32)C1 [Compound B38] | > 100
49 | O=C(O)[C@@H]1C2CCC(CC2)[C@H]1n1cc(C#CCC2CC2)c2cnc(-c3c[nH]c4ncc(F)cc34)nc21 [Compound B152] | 10 to 100
50 | CCOCCOCCCCC(=O)N[C@H]1CCC[C@@H](n2ccc3cnc(-c4c[nH]c5ncc(F)cc45)nc32)C1 [Compound B52] | > 100
51 | N[C@H]1C2CCC(CC2)[C@@H]1n1cc(Cl)c2cnc(-c3c[nH]c4ncc(F)cc34)nc21 [Compound B167] | 1 to 10
52 | CCOC(=O)[C@@H]1C2CCC(CC2)[C@H]1n1cc(CCc2ccccn2)c2cnc(-c3c[nH]c4ncc(F)cc34)nc21 [Compound B184] | 10 to 100
53 | CCOC(=O)[C@@H]1C2CCC(CC2)[C@H]1n1cc(C(F)(F)F)c2cnc(-c3c[nH]c4ncc(F)cc34)nc21 [Compound B177] | 10 to 100
54 | CCOCCOCCOCCNC(=O)N1CCC[C@H](n2ccc3cnc(-c4c[nH]c5ncc(F)cc45)nc32)C1 [Compound B31] | 10 to 100
55 | CNC(=O)[C@@H]1CCCCC1n1cc(F)c2cnc(-c3c[nH]c4ncc(Cl)cc34)nc21 (some centres unmarked) [Compound B94] | 10 to 100
56 | CCOCCOCCOCCNC(=O)[C@@H]1CCCC[C@H]1n1ccc2cnc(-c3c[nH]c4ncc(F)cc34)nc21 [Compound B25] | 1 to 10
57 | COC(=O)CNC(=O)CCn1ccc2c(-c3c[nH]c4ncc(F)cc34)ncnc21 [Compound A16] | > 100
58 | COC(=O)[C@H](C)NC(=O)Cn1ccc2cnc(-c3c[nH]c4ncc(F)cc34)nc21 [Compound B7] | > 100
59 | COC(=O)CNC(=O)Cn1ccc2cnc(-c3c[nH]c4ncc(F)cc34)nc21 [Compound B10] | > 100
60 | O=C(O)[C@@H]1C2CCC(CC2)[C@H]1n1cc(-c2ccc(O)cc2)c2cnc(-c3c[nH]c4ncc(F)cc34)nc21 [Compound B160] | 1 to 10
61 | O=C(O)CCN1CCc2cnc(-c3c[nH]c4ncc(F)cc34)nc21 [Compound B13] | 10 to 100
62 | CC(Cn1cc(-c2c[nH]c3ncc(F)cc23)c2cncnc21)C(=O)O (centres unmarked) [Compound C7] | 10 to 100
63 | O=C(O)c1cn([C@H]2C3CCC(CC3)[C@@H]2C(=O)O)c2nc(-c3c[nH]c4ncc(Cl)cc34)ncc12 [Compound B196] | 1 to 10
64 | CCOCCOCCOCCNC(=O)[C@@H]1CCCC[C@@H]1n1ccc2cnc(-c3c[nH]c4ncc(F)cc34)nc21 [Compound B30] | 10 to 100
65 | C[C@@]1(C(=O)O)CCCC[C@H]1n1cc(F)c2cnc(-c3c[nH]c4ncc(Cl)cc34)nc21 [Compound B91] | < 1
